One experiment has as its target T1, 11β-HSD1 (human liver microsomes) (Homo sapiens, UniProt P28845).
T1 construct: detecting cortisol generated from cortisterone by human liver microsomes; from tissue; host or cells: human liver microsomes
Kind of experiment: In vitro inhibition of 11β-HSD1, HTRF detection of cortisol generated by human liver microsomes. The experiment is classed as biochemical. The note with it: 100 nM inhibitor, 100% indicates no inhibition, zero or below zero indicates complete inhibition, 1 hour at 37° C., read-out: Average % control inhibition at 100 nM. On the technique in general: TR-FRET usually uses a lanthanide donor and a delayed reading to cut background.
T1 sequence (P28845 whole entry): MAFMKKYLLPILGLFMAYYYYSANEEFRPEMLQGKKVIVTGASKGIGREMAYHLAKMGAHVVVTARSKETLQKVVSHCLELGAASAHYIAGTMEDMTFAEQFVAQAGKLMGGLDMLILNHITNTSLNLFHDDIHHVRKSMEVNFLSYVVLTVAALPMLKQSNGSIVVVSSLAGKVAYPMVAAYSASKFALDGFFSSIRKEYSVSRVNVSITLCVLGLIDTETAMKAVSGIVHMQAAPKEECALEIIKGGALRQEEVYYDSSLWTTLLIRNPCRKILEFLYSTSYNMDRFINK
T2 sequence (P28845 whole entry): as above
Method: Briefly, compounds were incubated for 1 hour at 37° C. in Tris buffer (20 mM tris, 5 mM EDTA, pH 6.0) containing NADPH (200 μM) and cortisone (80 nM). Cortisol generated in the reaction is then detected with a competitive immunoassay, involving two HTRF conjugates: cortisol linked to XL665 and anti-cortisol antibody labeled with Europium cryptate. The incubation period for detection reaction was typically 2 hours. […] The ratio of the two emission signals is then calculated (Em665*10000/Em615). […] Each assay also contained a calibration curve with cortisol to transform the fluorescent data into cortisol concentrations. Percent inhibition of each compound was determined relative to the carbenoxolone signal.
For the molecule `CCNC(=O)c1ccc(-c2ccc([C@H](C)N3CC[C@](CC(C)(C)O)(c4ccccc4)OC3=O)cc2)cn1` [Example 15, 5-(4-{(S)-1-[(S)-6-(2-Hydroxy-2-methyl-propyl)-2-oxo-6-phenyl-[1,3]oxazinan-3-yl]-ethyl}-phenyl)-pyridine-2-carboxylic acid ethylamide], the remaining activity at 0.1 µM is -34%. The same measure, in the same setting: with `CNC(=O)c1ccc(-c2ccc([C@H](C)N3CC[C@](CC(C)(C)O)(c4ccccc4)OC3=O)cc2)cn1` [Example 16, 5-(4-{(S)-1-[(S)-6-(2-Hydroxy-2-methyl-propyl)-2-oxo-6-phenyl-[1,3]oxazinan-3-yl]-ethyl}-phenyl)-pyridine-2-carboxylic acid methylamide] the figure was -24%; with `C[C@@H](c1ccc(-c2ccc(C(=O)N(C)C)nc2)cc1)N1CC[C@](CC(C)(C)O)(c2ccccc2)OC1=O` [Example 17, (4-{(S)-1-[(S)-6-(2-Hydroxy-2-methyl-propyl)-2-oxo-6-phenyl-[1,3]oxazinan-3-yl]-ethyl}-phenyl)-pyridine-2-carboxylic acid dimethylamide], -10%; with `C[C@@H](c1ccc(C2CCNCC2)cc1)N1CC[C@](CC(C)(C)O)(c2ccccc2)OC1=O` [Example 18, (S)-6-(2-Hydroxy-2-methyl-propyl)-6-phenyl-3-[(S)-1-(4-piperidin-4-yl-phenyl)-ethyl]-[1,3]oxazinan-2-one], 93%. Still for that read-out and setting: the result for `C[C@@H](c1ccc(C2CCN(C)CC2)cc1)N1CC[C@](CC(C)(C)O)(c2ccccc2)OC1=O` [Example 21, (S)-6-(2-Hydroxy-2-methyl-propyl)-3-{(5)-1-[4-(1-methyl-piperidin-4-yl)-phenyl]-ethyl}-6-phenyl-[1,3]oxazinan-2-one] reads 97%; that for `C[C@@H](c1ccc(C2CCN(S(C)(=O)=O)CC2)cc1)N1CC[C@](CC(C)(C)O)(c2ccccc2)OC1=O` [Example 22, (S)-6-(2-Hydroxy-2-methyl-propyl)-3-{(S)-1-[4-(1-methanesulfonyl-piperidin-4-yl)-phenyl]-ethyl}-6-phenyl-[1,3]oxazinan-2-one], 17%; that for `C[C@@H](c1ccc(C2CCN(C(=O)[C@@H]3CCCO3)CC2)cc1)N1CC[C@](CC(C)(C)O)(c2ccccc2)OC1=O` [Example 23, (S)-6-(2-Hydroxy-2-methyl-propyl)-6-phenyl-3-((S)-1-{4-[1-((S)-tetrahydro-furan-2-carbonyl)-piperidin-4-yl]-phenyl}-ethyl)-[1,3]oxazinan-2-one], 44%. For `C[C@@H](c1ccc(C2CCN(C(=O)[C@H]3CCCO3)CC2)cc1)N1CC[C@](CC(C)(C)O)(c2ccccc2)OC1=O` [Example 24, (S)-6-(2-Hydroxy-2-methyl-propyl)-6-phenyl-3-((S)-1-{4-[1-((R)-tetrahydro-furan-2-carbonyl)-piperidin-4-yl]-phenyl}-ethyl)-[1,3]oxazinan-2-one], the remaining activity at 0.1 µM is 53%. With `C[C@@H](c1ccc(C2CCN(C(=O)C(C)(C)O)CC2)cc1)N1CC[C@](CC(C)(C)O)(c2ccccc2)OC1=O` [Example 25, (S)-6-(2-Hydroxy-2-methyl-propyl)-6-phenyl-3-((S)-1-{4-[1-(2-hydroxy-2-propyl-carbonyl)-piperidin-4-yl]-phenyl}-ethyl)-[1,3]oxazinan-2-one], the remaining activity at 0.1 µM amounted to 71%. The same measure, in the same setting: the result for `C[C@@H](c1ccc(C2CCN(C(=O)[C@@H]3CCCN3C)CC2)cc1)N1CC[C@](CC(C)(C)O)(c2ccccc2)OC1=O` [Example 26, (S)-6-(2-Hydroxy-2-methyl-propyl)-3-((S)-1-{4-[1-((S)-1-methyl-pyrrolidine-2-carbonyl)-piperidin-4-yl]-phenyl}-ethyl)-6-phenyl-[1,3]oxazinan-2-one] reads 80%; that for `C[C@@H](c1ccc(C2CCN(C(=O)[C@H]3CCCN3C)CC2)cc1)N1CC[C@](CC(C)(C)O)(c2ccccc2)OC1=O` [Example 27, (S)-6-(2-Hydroxy-2-methyl-propyl)-3-((S)-1-{4-[1-((R)-1-methyl-pyrrolidine-2-carbonyl)-piperidin-4-yl]-phenyl}-ethyl)-6-phenyl-[1,3]oxazinan-2-one], 86%; that for `CNC(=O)N1CCC(c2ccc([C@H](C)N3CC[C@](CC(C)(C)O)(c4ccccc4)OC3=O)cc2)CC1` [Example 35, 4-(4-{(S)-1-[(S)-6-(2-Hydroxy-2-methyl-propyl)-2-oxo-6-phenyl-[1,3]oxazinan-3-yl]-ethyl}-phenyl)-piperidine-1-carboxylic acid methylamide], 1%. Same read-out and setting: with `C[C@@H](c1ccc(C2CCN(C(=O)N(C)C)CC2)cc1)N1CC[C@](CC(C)(C)O)(c2ccccc2)OC1=O` [Example 36, 4-((S)-4-{1-[(S)-6-(2-Hydroxy-2-methyl-propyl)-2-oxo-6-phenyl-[1,3]oxazinan-3-yl]-ethyl}-phenyl)-piperidine-1-carboxylic acid dimethylamide] the figure was 31%.

The same experiment, now with this note: 1 μM inhibitor (footnote *), 100% indicates no inhibition, zero or below zero indicates complete inhibition, read-out: Average % control inhibition (1 μM inhibitor concentration).
On to `C[C@@H](c1ccc(C2CCN(C)C(=O)C2)cc1)N1CC[C@](CC(C)(C)O)(c2ccccc2)OC1=O` (stereo partly drawn) [Example 33, (S)-6-(2-Hydroxy-2-methyl-propyl)-3-{(S)-1-[4-(1-methyl-2-oxo-piperidin-4-yl)-phenyl]-ethyl}-6-phenyl-[1,3]oxazinan-2-one], for which the remaining activity at 1 µM is -27%. Consider `C[C@@H](c1ccc(C2CCC(=O)N(C)C2)cc1)N1CC[C@](CC(C)(C)O)(c2ccccc2)OC1=O` (stereo partly drawn) [Example 34, (S)-6-(2-Hydroxy-2-methyl-propyl)-3-{(S)-1-[4-(1-methyl-6-oxo-piperidin-3-yl)-phenyl]-ethyl}-6-phenyl-[1,3]oxazinan-2-one], for which the remaining activity at 1 µM is -17%.

The next experiment addresses T2, human 11β-HSD1 (microsomes isolated from CHO cells overexpressing human 11β-HSD1) (Homo sapiens, UniProt P28845).
T2 construct: expressed in transfected cells; host or cells: CHO cells (microsomes)
Put plainly: Inhibition of a microsomal preparation of 11β-HSD1, scintillation proximity assay. The experiment is classed as biochemical. The note with it: microsomes from CHO cells overexpressing human 11β-HSD1; [3H]cortisone, SPA, 90 minutes at rt.
Method: All reactions were carried out at rt in 96 well clear flexible PET Microbeta plates (PerkinElmer). […] After a 10 minute pre-incubation, 50 μL of enzyme solution containing microsomes isolated from CHO cells overexpressing human 11β-HSD1 (10-20 μg/ml of total protein) was added, and the plates were incubated for 90 minutes at rt. […] The plates were shaken for 120 minutes at rt, and the SPA signal corresponding to [^3H]cortisol was measured on a Microbeta plate reader.
As a reminder, the IC50 is the concentration needed to halve the response being measured. Read a low IC50 as inhibition by little substance. `Cc1nc2cc(-c3ccc([C@H](C)N4CCC(CC(C)(C)O)(C(C)C)OC4=O)cc3)ccc2n1C` (single isomer, unassigned) [Example 37]: the IC50 came out at 6.9 nM.

Turning to `CC(C)C1(CC(C)(C)O)CCN([C@@H](C)c2ccc(-c3ccc4c(c3)ncn4C)cc2)C(=O)O1` (stereo partly drawn) [Example 38, 6-(2-hydroxy-2-methylpropyl)-6-isopropyl-3-{(S)-1-[4-(1-methyl-1H-benzo[d]imidazol-5-yl)phenyl]ethyl}-1,3-oxazinan-2-one], the IC50 was 7.7 nM.
